Measured values published in paper PMC9652379, “Safety evaluations of a synthetic antimicrobial peptide administered intravenously in rats and dogs” (Scientific Reports, 2022).
Converted amounts (≈) assume the structure as drawn. Positions of bridges follow the written chain, without caps; N, C: chain ends. Non-standard residues stand in square brackets, D forms with d. Residues, ends and D or L forms follow the SMILES beside them. Chains are numbered I, II in the order given. βAla = NCCC(=O)O

Tests used:
[1] = test system: K. pneumoniae; details: cited from earlier work
[2] = test system: Sprague Dawley rats; details: rat, in vivo, iv, 15 mg/kg/day
Method: Necroscopy and histopathological examinations were performed at the end of treatment and at the end of the recovery period. Macroscopic changes were recorded in the kidneys (pale coloration and a reddened medullary area in almost all males and females from groups on 9 and 15 mg/kg/day) and bladder (distended in a few males of all treated groups). These findings were also recorded at the end of the recovery period affecting all animals dose at 15 mg/kg/day (pale coloration of the kidneys) or one male (distended urinary bladder). […] At the end of the recovery period the mean weight of the spleen (both sexes) and the mean weight of the kidneys and ovaries (females) from animals treated at 15 mg/kg/day were still higher with respect to control group. […] For 15 mg/kg/day group, the changes observed in the kidneys, bone marrow, uterine cervix and vagina were not reversible (see Supplementary Material for images and number of animals affected by these irreversible abnormalities), while the rest of the findings were fully (femorotibial growth plate and duodenum) or partially recovered (heart, ovaries and mammary glands) after 2 weeks of recovery period.
All animals underwent necropsy. Descriptions of all macroscopic abnormalities were recorded. […]

[3] = test system: Sprague Dawley rats; experiment: Dose range finding in rats: clinical signs, body weight, survival; type: in vivo, rat
Method: The purpose of this study was to determine the DRF of SET-M33 peptide when administered by intravenous bolus to Sprague Dawley rats. In order to identify a starting point for DRF, in Phase I of this study the peptide was administered once daily for 3 days at a constant dose of 20 mg/kg/day to six animals (three males and three females). […] No clinical signs were recorded in any animal 20–60 min after administration. Body weight of all animals in Phase I remained constant or decreased slightly during treatment.
Phase II, where 10 animals/group (five males and five females) were used, included a control group and two dose groups (10 mg/kg/day and 20 mg/kg/day), that were injected once daily for seven days. […] At 20 mg/kg/day, additional clinical signs, including decreased activity, irregular and/or slow breathing, piloerection, partially closed eyelids, abnormal uncoordinated gait, reduced body tone and hunched posture, were observed during the 7 days. The mean body weight of males treated with 10 and 20 mg/kg/day declined slightly (6% and 5% less than control group, respectively).
Sprague Dawley rats were used for the toxicity studies. The animals were supplied by Envigo RMS S.L. All animals were 6–8 weeks old at the start of treatment and were allocated randomly to the treatment groups. […]
A viability/mortality check was recorded at least twice daily. […]

[4] = test system: male rats; experiment: Neurological toxicity in rats (Irwin test, body temperature, locomotor activity, body weight); type: in vivo
Method: The purpose of this study was to evaluate the neurological side-effects of SET-M33 following a single intravenous injection of 5, 9 and 15 mg/kg and vehicle (6 animals/group). The study was based on subjective observation of central nervous system effects on general behaviour (Irwin test), combined with objective evaluation of body temperature and locomotor activity in male rats[32],[33]. Effects on body weight were also assessed. Again the dose levels were selected on the basis of the DRF study reported above.
Evaluation of SET-M33 neurological toxicity was based on the method described by Irwin[32],[33]. On the day prior to dosing, detailed subjective observation of all animals was made to assess the neurobehavioral and physiological state of untreated rats. After subjective observation, rectal temperature was measured and spontaneous locomotor activity was assessed. On the day of dosing, the animals were treated and then returned to their home cages. […] During these observations, the following parameters were systematically evaluated for each animal using a standard procedure: lethality, restlessness, apathy, writhing, fighting, stereotyped behaviour, tremor, twitches, convulsions, exophthalmos, abnormal respiration, alertness, startle response, loss of righting reflex, abnormal body carriage, abnormal gait, Straub tail, piloerection, pupil diameter, light-pupil response, touch response, fearfulness, pinna reflex, corneal reflex, catalepsy, passivity, aggressiveness, body tone, grip strength, cutaneous blood flow, cyanosis, ptosis, lacrimation, salivation, pain response, motility impairment, grooming, diarrhoea, vocalization, increased urination. Normal attributes of animals (e.g. alertness, body tone etc.) were subjectively scored as 4; enhancement or depression of these attributes by SET-M33 was scored with higher or lower integers, respectively. Attributes normally absent in animals (e.g. abnormal gait, abnormal respiration, tremors etc.) were subjectively scored from 0 (normal) to 8. […] Finally, spontaneous locomotor activity was analysed. […]

[5] = test system: P. aeruginosa; details: cited from earlier work
[6] = Dose range finding in rats: toxicokinetics; type: in vivo, rat; details: for quantifiable plasma concentrations until, post-dose: rat, in vivo; for mean AUCt ratio, low vs. high dose (theoretical ratio 2) / mean Cmax ratio, low vs. high dose (theoretical ratio 2): rats, 10 vs 20 mg/kg/day iv bolus
Method: SET-M33 concentration was determined after administration by intravenous bolus for 7 days at 10 mg/kg/day and 20 mg/kg/day. Exposure parameters (AUCt and Cmax) were compared in order to evaluate dose-dependency, accumulation ratio and sex-related differences. […] Mean plasma levels of SET-M33 increased in parallel with dose in males and females. Mean time to maximum concentrations (tmax) were observed immediately after administration, 5 min post-dose for both periods (days 1 and 7) and sexes, coherently with intravenous bolus administration.
Blood samples were collected from the retro-orbital plexus of animals under light isoflurane anaesthesia. Blood samples were taken from three males and three females at each extraction time. Sampling times were as follows: Day 1: 5, 15, 30 and 60 min after administration. Day 7: pre-dose and 5, 15, 30, 60 min and 24 h after administration. Control animals were bled only once on days 1 and 7 of treatment at 30 min after treatment. Each blood sample was collected into a polypropylene test tube containing lithium heparin as anticoagulant and kept in an ice bath until centrifuging (1600 g for 10 min at 2–8 °C). The plasma from each sample was transferred to a fresh polypropylene test tube, immediately frozen in dry ice and stored at − 20 °C ± 5.

In the case of CC[C@H](C)[C@H](NC(=O)[C@H](CCCCN)NC(=O)[C@@H](N)CCCCN)C(=O)N[C@@H](CCCNC(=N)N)C(=O)N[C@H](C(=O)N[C@@H](CCCNC(=N)N)C(=O)N[C@@H](CC(C)C)C(=O)N[C@@H](CO)C(=O)N[C@@H](C)C(=O)NCCCC[C@H](NC(=O)[C@H](C)NC(=O)[C@H](CO)NC(=O)[C@H](CC(C)C)NC(=O)[C@H](CCCNC(=N)N)NC(=O)[C@@H](NC(=O)[C@H](CCCNC(=N)N)NC(=O)[C@@H](NC(=O)[C@H](CCCCN)NC(=O)[C@@H](N)CCCCN)[C@@H](C)CC)C(C)C)C(=O)NCCCC[C@H](NC(=O)[C@H](CCCCNC(=O)[C@H](C)NC(=O)[C@H](CO)NC(=O)[C@H](CC(C)C)NC(=O)[C@H](CCCNC(=N)N)NC(=O)[C@@H](NC(=O)[C@H](CCCNC(=N)N)NC(=O)[C@@H](NC(=O)[C@H](CCCCN)NC(=O)[C@@H](N)CCCCN)[C@@H](C)CC)C(C)C)NC(=O)[C@H](C)NC(=O)[C@H](CO)NC(=O)[C@H](CC(C)C)NC(=O)[C@H](CCCNC(=N)N)NC(=O)[C@@H](NC(=O)[C@H](CCCNC(=N)N)NC(=O)[C@@H](NC(=O)[C@H](CCCCN)NC(=O)[C@@H](N)CCCCN)[C@@H](C)CC)C(C)C)C(=O)NCCC(=O)O)C(C)C [SET-M33] (I: H-KKIRVRLSAKK[βAla]-OH / II: H-KKIRVRLSAK / III: H-KKIRVRLSA / IV: H-KKIRVRLSA; amide I:10-IV:C, I:11-II:C, II:10-III:C (inferred); N-terminus and C-terminus assumed), the MIC50 [1] is given as 1.4 µM (≈ 6.56 µg/mL), the MIC90 [1] is given as 2.8 µM (≈ 13.1 µg/mL) and the “cervical and vaginal epithelial atrophy, incidence” value [2] is given as 1 out of 5. The female body weight ([3]; female rats, 10 and 20 mg/kg/day iv, 7 days (Phase II)) was “unaffected by treatment”, the survival ([3]; rats, Phase I 20 mg/kg/day 3 days and Phase II 10 and 20 mg/kg/day 7 days, iv bolus) was “All animals survived both phases” and the “adverse clinical signs (Irwin test)” value ([4]; male rats, 5, 9 and 15 mg/kg single iv, 5, 30, 90, 240 min and 24 h post-dose) was “did not cause any adverse clinical signs”. For the same compound, the “delayed toxicity and mortality” value ([4]; male rats, 5, 9 and 15 mg/kg single iv, up to day 7) was “No delayed effects of toxicity and no mortality”, the “group mean body temperature lower than vehicle-treated control group” value ([4]; male rats, 9 and 15 mg/kg single iv, 5 min post-dose) was 0.4–0.6 °C and the MIC50 [5] was 1.4 µM (≈ 6.56 µg/mL). The MIC90 [5] was 1.4 µM (≈ 6.56 µg/mL), the “quantifiable plasma concentrations until, post-dose” value [6] was 1 h and the “quantifiable plasma concentrations until, post-dose” value ([6]; iv, 10 mg/kg/day) was 0.5 to 1 h. The “quantifiable plasma concentrations until, post-dose” value ([6]; iv, 20 mg/kg/day) was “up to 24 h”, the “mean AUCt ratio, low vs. high dose (theoretical ratio 2)” value ([6]; day 1) was 2.2 and the “mean Cmax ratio, low vs. high dose (theoretical ratio 2)” value ([6]; day 1) was 2.4 to 2.7. For the same compound, the “mean AUCt ratio, low vs. high dose (theoretical ratio 2)” value ([6]; day 7) was 9.8–14.0 and the “mean Cmax ratio, low vs. high dose (theoretical ratio 2)” value ([6]; day 7) was 2.8–7.2.
